Data: article PMC10450149, “Antennal transcriptome analysis of odorant-binding proteins and characterization of GOBP2 in the variegated cutworm Peridroma saucia” (Frontiers in Physiology, 2023)
“And” between values parts separate entries of the source, which are not always exact repeats. Equal entries are not always repeated.

Columns and labels:
recombinant PsauGOBP2 [1] = experiment: Competitive fluorescence binding assay: displacement of 1-NPN from recombinant PsauGOBP2; set-up: species or system Peridroma saucia; settings: means ± SE, n = 3; for IC50: PsauGOBP2 and 1-NPN, IC50 > 30 μM considered no binding affinity, read-out: IC50 (concentration of ligand halving the initial fluorescence value of 1-NPN); for Ki: Ki = [IC50]/(1 + [1-NPN]/K1-NPN), read-out: Ki (calculated dissociation constant)
Description: (§1) For the expression of recombinant PsauGOBP2, pET-30b containing the sequence encoding mature PsauGOBP2 was used to transform BL21 E. coli cells. Protein expression was induced by the addition of IPTG (final concentration 0.4 mM) when the OD600 value of cell culture reached about 0.8. Cells cultured for further 2–4 h at 37°C were harvested by centrifugation. PsauGOBP2 was present as inclusion bodies. 10 mL of 8 M urea and 1 mM DTT in Tris buffer (50 mM, pH 7.4) were then used to solubilise the inclusion body pellet (from 1 L of culture). The dissolved protein was dialyzed against 1 L of Tris buffer (50 mM, pH 7.4). The recombinant protein was purified on the anion exchange resins QFF, following standard protocols previously adopted for other moth OBPs ([Sun et al., 2012]; [Sun et al., 2021]).
Binding affinities of odorants to PsauGOBP2 were measured by competitive binding assays. A panel of 28 compounds (competitors) including the P. saucia female sex pheromone components Z11-16: Ac and Z9-14: Ac and 26 host plant volatiles were used in the assay. The CAS number, source, and purity of these compounds were listed in Supplementary Table S3. A solution of PsauGOBP2 and 1-NPN, both at the concentration of […], was titrated with 1 mM of each competitor (dissolved in methanol) at a final concentration of 10 µM (sex pheromones) or 20 µM (host plant volatiles). The dissociation constants (Ki) of competitors to PsauGOBP2 were calculated using the equation: Ki = [IC50]/(1 + [1-NPN]/K1-NPN), where [IC50] is the concentration of the competitor halving (50%) the initial fluorescence value (100%), [1-NPN] is the free concentration of 1-NPN, and K1-NPN is the dissociation constant of the protein-1-NPN complex.

PsauGOBP1 = molecular target: PsauGOBP1; set-up: method as in Sun et al., 2021; settings: binding to PsauGOBP1; ref Sun et al., 2021; cited from earlier work
recombinant PsauGOBP2 [2] = experiment: Fluorescence binding assay: titration of recombinant PsauGOBP2 with the fluorescent probe 1-NPN; set-up: species or system Peridroma saucia; settings: 2 mM protein in 50 mM Tris-HCl pH 7.4, titrated with 1-NPN to 20 µM; excitation 337 nm; means +SE, n = 3; single binding site; read-out: K1-NPN (dissociation constant of 1-NPN to PsauGOBP2)
Description: as §1
The fluorescence binding assays were conducted on a Hitachi F-2710 with a 1 cm light path quartz cuvette. To measure the affinity of the fluorescent probe 1-NPN (N-phenyl-1-naphthylamine) to PsauGOBP2, a […] solution of the protein in 50 mM Tris-HCl, pH 7.4, was titrated with aliquots of 1 mM 1-NPN in methanol to a final concentration of 20 µM. The probe was excited at 337 nm, and emission spectra were recorded between 380 and 460 nm. The dissociation constant of 1-NPN (K1-NPN) to PsauGOBP2 was obtained by processing the data with GraphPad Prism 6.0.

[3] = remaining 1-NPN fluorescence at Max Conc 20 (20 µM, host plant volatiles)
[4] = remaining 1-NPN fluorescence at Max Conc 10 (10 µM, sex pheromones)

Compound: CC(C)=CCCC(C)=CC=O (mixture of isomers) [Citral]
- IC50 (recombinant PsauGOBP2 [1]): > 30 µM
- Fluorescence at max (%) (recombinant PsauGOBP2 [1]; [3]): 76 ± 5%
- Ki (PsauGOBP1): 5.6 µM

Compound: c1ccc(Nc2cccc3ccccc23)cc1 [1-NPN, N-phenyl-1-naphthylamine]
- Kd (recombinant PsauGOBP2 [2]): 3.2 ± 0.19 µM

Compound: CCC/C=C/CO [(E)-2-Hexen-1-ol, (E)-2-hexen-1-ol]
- IC50 (recombinant PsauGOBP2 [1]): > 30 µM
- Fluorescence at max (%) (recombinant PsauGOBP2 [1]; [3]): 69 ± 7%

Compound: CCC/C=C/C=O [(E)-2-Hexenal, (E)-2-hexenal]
- IC50 (recombinant PsauGOBP2 [1]): > 30 µM
- Fluorescence at max (%) (recombinant PsauGOBP2 [1]; [3]): 77 ± 3%

Compound: CCC/C=C/COC(C)=O [(E)-2-Hexenyl acetate, (E)-2-hexenyl acetate]
- IC50 (recombinant PsauGOBP2 [1]): > 30 µM
- Fluorescence at max (%) (recombinant PsauGOBP2 [1]; [3]): 69 ± 3%

Compound: C=C1CC/C=C(\C)CC[C@@H]2[C@@H]1CC2(C)C [(E)-Caryophyllene, (E)-caryophyllene]
- IC50 (recombinant PsauGOBP2 [1]): > 30 µM
- Fluorescence at max (%) (recombinant PsauGOBP2 [1]; [3]): 90 ± 3%

Compound: C=CC(=C)CC/C=C(\C)CCC=C(C)C [(E)-β-farnesene]
- IC50 (recombinant PsauGOBP2 [1]): > 30 µM
- Fluorescence at max (%) (recombinant PsauGOBP2 [1]; [3]): 75 ± 7%

Compound: CC/C=C\CCO [(Z)-3-Hexen-1-ol, (Z)-3-hexen-1-ol]
- IC50 (recombinant PsauGOBP2 [1]): > 30 µM
- Fluorescence at max (%) (recombinant PsauGOBP2 [1]; [3]): 72 ± 3%
- Ki (PsauGOBP1): 8.5 µM

Compound: CC/C=C\CCOC(C)=O [(Z)-3-Hexenyl acetate, (Z)-3-hexenyl acetate]
- IC50 (recombinant PsauGOBP2 [1]): > 30 µM
- Fluorescence at max (%) (recombinant PsauGOBP2 [1]; [3]): 86 ± 2%
- Ki (PsauGOBP1): 4 µM

Compound: CC/C=C\CC1=C(C)CCC1=O [(Z)-jasmone]
- IC50 (recombinant PsauGOBP2 [1]): > 30 µM
- Fluorescence at max (%) (recombinant PsauGOBP2 [1]; [3]): 75 ± 3%

Compound: O=Cc1ccccc1 [Benzaldehyde]
- IC50 (recombinant PsauGOBP2 [1]): > 30 µM
- Fluorescence at max (%) (recombinant PsauGOBP2 [1]; [3]): 74 ± 3%
- Ki (PsauGOBP1): 9.4 µM

Compound: C=C(C)[C@H]1CC=C(C)CC1 [D-Limonene]
- IC50 (recombinant PsauGOBP2 [1]): > 30 µM
- Fluorescence at max (%) (recombinant PsauGOBP2 [1]; [3]): 85 ± 5%

Compound: CCCCCCCCCC=O [Decanal]
- IC50 (recombinant PsauGOBP2 [1]): > 30 µM
- Fluorescence at max (%) (recombinant PsauGOBP2 [1]; [3]): 73 ± 7%

Compound: CCCCCCCCCCCCO [Dodecanol]
- Ki (recombinant PsauGOBP2 [1]): 13 ± 0.4 µM
- IC50 (recombinant PsauGOBP2 [1]): 19.5 ± 0.6 µM
- Fluorescence at max (%) (recombinant PsauGOBP2 [1]; [3]): 49 ± 3%

Compound: CC(C)=CCC/C(C)=C/CC/C(C)=C/CO [Farnesol]
- IC50 (recombinant PsauGOBP2 [1]): > 30 µM
- Fluorescence at max (%) (recombinant PsauGOBP2 [1]; [3]): 100 ± 3%
- Ki (PsauGOBP1): 6.4 µM

Compound: CCCCCCCO [Heptanol]
- IC50 (recombinant PsauGOBP2 [1]): > 30 µM
- Fluorescence at max (%) (recombinant PsauGOBP2 [1]; [3]): 80 ± 2%

Compound: c1ccc2[nH]ccc2c1 [Indole]
- IC50 (recombinant PsauGOBP2 [1]): > 30 µM
- Fluorescence at max (%) (recombinant PsauGOBP2 [1]; [3]): 100 ± 8%

Compound: CC/C=C\C[C@H]1C(=O)CC[C@@H]1CC(=O)O [Jasmonic acid]
- IC50 (recombinant PsauGOBP2 [1]): > 30 µM
- Fluorescence at max (%) (recombinant PsauGOBP2 [1]; [3]): 73 ± 5%

Compound: C=CC(C)(O)CCC=C(C)C (centres unmarked) [Linalool]
- IC50 (recombinant PsauGOBP2 [1]): > 30 µM
- Fluorescence at max (%) (recombinant PsauGOBP2 [1]; [3]): 74 ± 6%

Compound: CC/C=C\CC1C(=O)CCC1CC(=O)OC (centres unmarked) [Methyl jasmonate]
- IC50 (recombinant PsauGOBP2 [1]): > 30 µM
- Fluorescence at max (%) (recombinant PsauGOBP2 [1]; [3]): 70 ± 7%

Compound: COC(=O)c1ccccc1O [Methyl salicylate]
- IC50 (recombinant PsauGOBP2 [1]): > 30 µM
- Fluorescence at max (%) (recombinant PsauGOBP2 [1]; [3]): 79 ± 2%

Compound: CCCCCCCCC=O [Nonanal]
- IC50 (recombinant PsauGOBP2 [1]): > 30 µM
- Fluorescence at max (%) (recombinant PsauGOBP2 [1]; [3]): 85 ± 2%
- Ki (PsauGOBP1): 6.8 µM

Compound: CCCCCCCC=O [Octanal]
- IC50 (recombinant PsauGOBP2 [1]): > 30 µM
- Fluorescence at max (%) (recombinant PsauGOBP2 [1]; [3]): 75 ± 2%

Compound: CC(=O)OCCc1ccccc1 [Phenylethyl acetate]
- Ki (recombinant PsauGOBP2 [1]): 6.3 ± 0.3 µM
- IC50 (recombinant PsauGOBP2 [1]): 10.5 ± 0.5 µM
- Fluorescence at max (%) (recombinant PsauGOBP2 [1]; [3]): 39 ± 3%

Compound: CCCC/C=C\CCCCCCCCOC(C)=O [Z9-14: Ac]
- Ki (recombinant PsauGOBP2 [1]): 4.9 µM and < 5 µM
- IC50 (recombinant PsauGOBP2 [1]): 7.5 ± 0.9 µM
- Fluorescence at max (%) (recombinant PsauGOBP2 [1]; [4]): 45 ± 3%

Compound: CCCC/C=C\CCCCCCCCCCOC(C)=O [Z11-16: Ac]
- Ki (recombinant PsauGOBP2 [1]): 4.2 µM and < 5 µM
- IC50 (recombinant PsauGOBP2 [1]): 6.5 ± 1.2 µM
- Fluorescence at max (%) (recombinant PsauGOBP2 [1]; [4]): 41 ± 4%

Compound: C=CC(=C)CCC=C(C)C [β-Myrcene, β-myrcene]
- Ki (recombinant PsauGOBP2 [1]): 8 ± 0.3 µM
- IC50 (recombinant PsauGOBP2 [1]): 12 ± 0.5 µM
- Fluorescence at max (%) (recombinant PsauGOBP2 [1]; [3]): 45 ± 1.5%

Compound: C=C/C(C)=C/CC=C(C)C [β-Ocimene, β-ocimene]
- IC50 (recombinant PsauGOBP2 [1]): > 30 µM
- Fluorescence at max (%) (recombinant PsauGOBP2 [1]; [3]): 90 ± 4%

Compound: C=C1CCC2CC1C2(C)C (stereo not drawn) [β-Pinene, β-pinene]
- IC50 (recombinant PsauGOBP2 [1]): > 30 µM
- Fluorescence at max (%) (recombinant PsauGOBP2 [1]; [3]): 79 ± 9%
